Source: patent publication US20240150286A1, “PEROXISOME PROLIFERATOR-ACTIVATED RECEPTOR GAMMA (PPARy) LIGANDS AND METHODS OF USE AS TREATMENTS FOR INSULIN RESISTANCE, OBESITY, FATTY LIVER DISEASE, AND TYPE 2 DIABETES” (The Board of Regents of the University of Oklahoma, priority 2022, published 2024)

Columns and labels:
3T3-L1 cells = experiment: 3T3-L1 adipocyte differentiation (Oil Red O staining, adipogenic gene mRNA); format: cell-based, mouse
Method: 3T3-L1 preadipocytes were differentiated. In brief, cells at around 60%-70% confluence were induced for differentiation with DMEM containing 10% FBS, 1 μg/ml insulin, 1 μM dexamethasone, and 0.5 mM IBMX for 48 h in the presence or absence of compounds and were then exposed in maintenance medium (1 μg/mL insulin in 10% FBS/DMEM) containing compounds. The medium was renewed every 2 days for total 8 days of differentiation when the cells became differentiated and lipid droplets were apparent. For primary preadipocyte differentiation, isolation of primary preadipocytes was performed. Briefly, fat depots were digested in PBS containing collagenase D (1.5 U/ml) at 37° C. for 40-45 min. The primary cells were filtered through 70 μm cell strainer and centrifuge at 700 g to collect stromal vascular fraction (SVF). The SVF cell pellets were plated on collagen coated plates. […]
Total RNA (2 μg) was isolated from tissues or cells using TRIzol reagents (Life Technologies) and reverse transcribed using oligo d(T) primers (New England Biosystems) and SuperScript IV reverse transcription kit (Applied Biosystems). qPCR was performed in a CFX96 Touch Real-Time PCR detection system using SYBR Green mix (Applied Biosystems). […] Relative mRNA expression was determined by the ΔΔCt method normalized to TBP mRNA. […]

[1] = biological target: T1, PPARγ ligand-binding domain (LBD) (Homo sapiens, UniProt P37231); experiment: In vitro competition binding assay (PolarScreen PPARγ-Competitor, fluorescence polarization)
T1 construct: purchased Thermo Fisher Scientific
T1 sequence (P37231 238-503 limits assumed): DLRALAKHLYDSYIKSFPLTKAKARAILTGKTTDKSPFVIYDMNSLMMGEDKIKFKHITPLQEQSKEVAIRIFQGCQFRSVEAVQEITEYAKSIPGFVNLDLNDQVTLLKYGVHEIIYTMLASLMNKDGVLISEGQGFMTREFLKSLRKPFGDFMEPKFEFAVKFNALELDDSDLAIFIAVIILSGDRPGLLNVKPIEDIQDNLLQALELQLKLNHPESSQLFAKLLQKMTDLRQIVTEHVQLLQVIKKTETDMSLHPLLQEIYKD
Method: The in vitro competition binding assays was performed using PolarScreen™ PPARγ-Competitor Assay Kit according to the manufacturer's instructions. Briefly, compounds at 2-fold titration serial concentrations were incubated with GST-tagged PPARγ ligand-binding domain (LBD, 34 nM) and Fluormone PPAR Green tracer (9 nM) for 4 hours in the dark at room temperature in a black 384-well assay plate (Corning Glass cat. no. 677). The florescence polarization value (mP) was measured at 485 nm (excitation) and at 535 nm (emission) using a microplate reader.

[2] = test system: diet-induced obesity (DIO) mice; experiment: TZD-associated side effects in DIO mice (PCV, heart weight, cardiac and bone genes); format: in vivo, mouse
Method: C57BL/6J male mice were obtained from Jackson laboratory (Bar Harbor, ME) and maintained on a 12 h light (6:00 AM to 6:00 PM)—12 h dark (6:00 PM to 6:00 AM) cycle at an ambient temperature of 22±1° C. All animals had access to diet and water ad libitum. All procedures involving animals were approved by the Institutional Animal Care and Use Committee of the University of Oklahoma Health Science Center. All experiments were performed with age-matched male mice. The mice were fed a high-fat diet (HFD) (60% kcal fat, Bio-Serv, NJ, USA) starting from the age of 6 weeks until study end. […] Food intake was determined manually by measuring the amount of input food subtracting the amount of the food remaining in the food hopper and the crumbs on the bedding of the cage each day for three days during the 4th week of the treatment. Packed cell volume (PCV) was measured with blood drawn from tail on a LW Scientific E8 centrifuge (LW Scientific, Lawrenceville, Georgia, USA) microhematocrit centrifuge at the end of study. For all other measurements, the blood was drawn at the time of euthanization.
Total RNA (2 μg) was isolated from tissues or cells using TRIzol reagents (Life Technologies) and reverse transcribed using oligo d(T) primers (New England Biosystems) and SuperScript IV reverse transcription kit (Applied Biosystems). qPCR was performed in a CFX96 Touch Real-Time PCR detection system using SYBR Green mix (Applied Biosystems). The amplification program was as follows: initial denaturation at 95° C. for 15 min, followed by 40 cycles of 95° C. for 15 s, 60° C. for 1 min, and 40° C. for 30 s. Relative mRNA expression was determined by the ΔΔCt method normalized to TBP mRNA.

Cc1c(C)n(Cc2ccc(-c3ccccc3C(=O)O)cc2)c2ccc(C(=O)NCc3cccc(O)c3)cc12 [WO95E, 4′-((5-((3-hydroxybenzyl)carbamoyl)-2,3-dimethyl-1H-indol-1-yl)methyl)-[1,1′-biphenyl]-2-carboxylic acid]
mRNA levels of adipogenic genes PPARγ, FABP4, Glut4, PEPCK, C/EBPa (3T3-L1 cells; 3T3-L1, compounds at 10 μM, qRT-PCR): only minimally or moderately increased
Oil Red O staining / adipocyte differentiation (3T3-L1 cells; 3T3-L1, differentiation media, compounds at 10 μM): only marginally increased Oil Red O staining level
IC50 fold lower than that of UHC1 ([1]; WO95E vs UHC1): approximately 70 fold
IC50 ([1]; competition with Fluormone PPAR Green tracer, GST-PPARγ LBD 34 nM, read-out: half-maximum inhibitory concentration (IC50), binding to PPARγ LBD): ~11 nM
mRNA levels of bone formation genes (Bglap, SPP1, ColA1) ([2]; 4-week treatment): no apparent effect
packed-cell volume (PCV) ([2]; indicator of hemodilution): unchanged
heart weight ([2]; relative to vehicle): no effect
mRNA levels of Myh7 and Nppb in heart ([2]; vs vehicle): not significantly altered or even lowered
